In patent US7317028B2, “Cell differentiation inducer” (Schering Aktiengesellschaft, priority 1996, dated 2008) one finds minimal effective concentration and melting point data, which are given here for 24 molecules.

The test system of one data set is A2780 cells. The experiment in a line: Test for induction of differentiation in A2780 cells (ALP activity, ALPmin). In kind it is cell-based, human. Particulars: Homo sapiens, 72 h; A2780 cells, 3 days incubation; minimum concentration of the drug inducing increase of ALP activity. As to the method: Increase of alkaline phosphatase (ALP) activity is known as an indicator for differentiation of human colon cancer cells. […] Thus, differentiation inducing action was evaluated using ALP activity as an indicator.
To each well of a 96-well plate was placed 0.1 mL of A2780 cells (15,000 cells/well) and the next day was added 0.1 mL of a sequential dilute of test solution with the medium. […] The reaction was quenched with 0.05 mL/well of 3N sodium hydroxide aq. For each well, an absorbance at 405 nm was measured to determine the minimum concentration of the drug inducing increase of ALP activity (ALPmin).

On to `Nc1ccccc1NC(=O)c1ccc(CNC(=O)c2ccno2)cc1` [Example 25, N-(2-aminophenyl)-4-[N-(isoxazol-5-yl)carbonylaminomethyl]benzamide], for which the melting point (in general, the temperature of the solid-liquid transition) was 183 to 185 °C (dec.). Moreover, the minimal effective concentration – broadly, the lowest level tested that produced the effect sought – in the data set with A2780 cells is 3 µM.
Molecule `Cc1cc(C(=O)NCc2ccc(C(=O)Nc3ccccc3N)cc2)sn1` [Example 26, N-(2-aminophenyl)-4-[N-(3-methylisothiazol-5-yl)carbonylaminomethyl]benzamide] yielded a melting point of 168 to 169 °C. This molecule registered a minimal effective concentration in the data set on A2780 cells of 1 µM.
The like results for `Nc1cccc(CC(=O)NCc2ccc(C(=O)Nc3ccccc3N)cc2)c1` [Example 28, N-(2-aminophenyl)-4-[N-(3-aminophenyl)acetylaminomethyl]benzamide] were, in that order, 171 to 176 °C and 10 µM.
The molecule `Nc1ccccc1NC(=O)c1ccc(CNC(=O)Cc2cccnc2)cc1` [Example 29, N-(2-aminophenyl)-4-[N-(pyridin-3-yl)acetylaminomethyl]benzamide] came in with a melting point of 127 °C. For the same molecule, in the data set on A2780 cells, the minimal effective concentration worked out at 10 µM.
On to `Nc1ccccc1NC(=O)c1ccc(CNC(=O)CCc2cccnc2)cc1` [Example 30, N-(2-aminophenyl)-4-[N-[3-(pyridin-3-yl)propionyl]aminomethyl]benzamide], for which the melting point is 183 to 186 °C. This molecule gave a minimal effective concentration with A2780 cells of 0.1 µM.
With `Nc1ccccc1NC(=O)c1ccc(CNC(=O)CCC(=O)c2cccnc2)cc1` [Example 31, N-(2-aminophenyl)-4-[N-[4-(pyridin-3-yl)-1,4-dioxobutyl]aminomethyl]benzamide], the melting point is 145 to 147 °C (dec.). This molecule yielded a minimal effective concentration in the data set on A2780 cells of 10 µM.
With `Nc1ccccc1NC(=O)c1ccc(CNC(=O)COc2cncc(Cl)c2)cc1` [Example 32, N-(2-aminophenyl)-4-[N-(5-chloropyridin-3-yl)oxyacetylaminomethyl]benzamide], the melting point lay within 199 to 201 °C. Also, the minimal effective concentration in the data set with A2780 cells was 3 µM.
The like results for `COc1ccc(N)c(NC(=O)c2ccc(CNC(=O)COc3cccnc3)cc2)c1` [Example 33, N-(2-amino-5-methoxyphenyl)-4-[N-(pyridin-3-yl)oxyacetylaminomethyl]benzamide] were, in that order, 141 to 144 °C and 0.3 µM.
`Nc1ccccc1NC(=O)c1ccc(CNC(=O)CC(=O)c2cccnc2)cc1` [Example 34, N-(2-aminophenyl)-4-[N-[3-(pyridin-3-yl)-1,3-dioxopropyl]aminomethyl]benzamide]: the melting point lay in the range of 204 to 206 °C. Also, the minimal effective concentration with A2780 cells was found to be 0.1 µM.
Turning to `Nc1ccccc1NC(=O)c1ccc(CNC(=O)c2ccc3ncccc3c2)cc1` [Example 37, N-(2-aminophenyl)-4-[N-(quinolin-6-yl)carbonylaminomethyl]benzamide], the melting point lay within 209 to 210 °C. Besides, in the data set on A2780 cells, the minimal effective concentration is 1 µM.
The like results for `Nc1ccccc1NC(=O)c1ccc(CNC(=O)c2cc3ncccc3o2)cc1` [Example 38, N-(2-aminophenyl)-4-[N-(furo[3,2-b]pyridin-2-yl)carbonylaminomethyl]benzamide] were, in that order, 191 °C (dec.) and 3 µM.
With `Nc1ccccc1NC(=O)c1ccc(CNC(=O)c2cc3ccncc3o2)cc1` [Example 39, N-(2-aminophenyl)-4-[N-(furo[2,3-c]pyridin-2-yl)carbonylaminomethyl]benzamide], the melting point was 210 °C (dec.). Besides, in the data set on A2780 cells, the minimal effective concentration was found to be 0.1 µM.
With `O=C(Cc1cccnc1)NCc1ccc(C(=O)Nc2ccccc2O)cc1` [Example 42, N-(2-hydroxyphenyl)-4-[N-(pyridin-3-yl)acetylaminomethyl]benzamide], the melting point was in the range of 201 to 202 °C. The molecule further showed a minimal effective concentration in the data set with A2780 cells of 10 µM.
`Nc1ccccc1NC(=O)c1ccc(CNC(=O)OCc2ccc(-n3ccnc3)cc2)cc1` [Example 50, N-(2-aminophenyl)-4-[N-(4-(imidazol-1-yl)benzyl)oxycarbonylaminomethyl]benzamide]: the melting point is 195 to 198 °C. In addition, the minimal effective concentration in the data set on A2780 cells was 1 µM.
`Nc1ccccc1NC(=O)c1ccc(CNC(=O)OCc2ccccn2)cc1` [Example 51, N-(2-aminophenyl)-4-[N-(pyridin-2-yl)methoxycarbonylaminomethyl]benzamide] registered a melting point of 166 to 167 °C. Further, in the data set with A2780 cells, the minimal effective concentration amounted to 1 µM.
In the case of `Nc1ccccc1NC(=O)c1ccc(CNC(=O)OCCc2ccccn2)cc1` [Example 52, N-(2-aminophenyl)-4-[N-[2-(pyridin-2-yl)ethoxycarbonyl]aminomethyl]benzamide], the melting point was in the range of 146 to 148 °C. In the data set with A2780 cells, this molecule came in with a minimal effective concentration of 1 µM.
As for `Cc1cccc(COC(=O)NCc2ccc(C(=O)Nc3ccccc3N)cc2)n1` [Example 53, N-(2-aminophenyl)-4-[N-(6-methylpyridin-2-yl)methoxycarbonylaminomethyl]benzamide], the melting point was 138 °C. The same molecule showed a minimal effective concentration in the data set on A2780 cells of 3 µM.
With `Nc1ccccc1NC(=O)c1ccc(CNC(=O)OCCc2cccnc2)cc1` [Example 54, N-(2-aminophenyl)-4-[N-[2-(pyridin-3-yl)ethoxycarbonyl]aminomethyl]benzamide], the melting point lay in the range of 120 to 125 °C. For the same molecule, in the data set with A2780 cells, the minimal effective concentration stood at 1 µM.
Molecule `Nc1ccccc1NC(=O)c1ccc(CNC(=O)OCCCc2cccnc2)cc1` [Example 55, N-(2-aminophenyl)-4-[N-[3-(pyridin-3-yl)propyloxycarbonyl]aminomethyl]benzamide] had a melting point of 121 to 124 °C. For the same molecule, the minimal effective concentration in the data set on A2780 cells was found to be 1 µM.
In turn, `Cc1ncccc1COC(=O)NCc1ccc(C(=O)Nc2ccccc2N)cc1` [Example 56, N-(2-aminophenyl)-4-[N-(2-methylpyridin-3-yl)methoxycarbonylaminomethyl]benzamide] showed a melting point of 164 to 165 °C. In the data set on A2780 cells, the minimal effective concentration worked out at 3 µM.
For `Cc1ccc(COC(=O)NCc2ccc(C(=O)Nc3ccccc3N)cc2)cn1` [Example 57, N-(2-aminophenyl)-4-[N-(6-methylpyridin-3-yl)methoxycarbonylaminomethyl]benzamide], the melting point is 164 to 165 °C. The molecule further returned a minimal effective concentration in the data set on A2780 cells of 3 µM.
As to `Nc1ccccc1NC(=O)c1ccc(CNC(=O)OCc2ccc(Cl)nc2)cc1` [Example 59, N-(2-aminophenyl)-4-[N-(6-chloropyridin-3-yl)methoxycarbonylaminomethyl]benzamide], the melting point is 180 to 185 °C. Further, the minimal effective concentration with A2780 cells came to 3 µM.
Turning to `Nc1ccccc1NC(=O)c1ccc(CNC(=O)OCc2ccncc2)cc1` [Example 60, N-(2-aminophenyl)-4-[N-(pyridin-4-yl)methoxycarbonylaminomethyl]benzamide], the melting point was 180 to 183 °C. Besides, the minimal effective concentration in the data set on A2780 cells is 3 µM.
Turning to `Nc1ccccc1NC(=O)c1ccc(CNC(=O)OCc2cncs2)cc1` [Example 63, N-(2-aminophenyl)-4-[N-(thiazol-5-yl)methoxycarbonylaminomethyl]benzamide], the melting point was in the range of 168 to 175 °C. The molecule further came in with a minimal effective concentration in the data set on A2780 cells of 3 µM.
